According to article PMC5799700, “Screening for PPAR Non-Agonist Ligands Followed by Characterization of a Hit, AM-879, with Additional No-Adipogenic and cdk5-Mediated Phosphorylation Inhibition Properties” (Frontiers in Endocrinology, 2018):
“Also recorded” adds a separate entry of the source.

Experiments:
PPARβ = target: T1, PPARβ (Homo sapiens, UniProt Q03181); assay: Isotype specificity transactivation assay, GAL4-PPARβ-LBD reporter gene; type: cell-based; details: 293T cells, ligands 1 μM, compared with full agonist
T1 construct: using a GAL4-PPARα-LBD (A) or GAL4-PPARβ-LBD (B) reporter gene; expressed in transfected cells; host or cells: HEK 293T
T1 sequence (Q03181 211-439 limits assumed): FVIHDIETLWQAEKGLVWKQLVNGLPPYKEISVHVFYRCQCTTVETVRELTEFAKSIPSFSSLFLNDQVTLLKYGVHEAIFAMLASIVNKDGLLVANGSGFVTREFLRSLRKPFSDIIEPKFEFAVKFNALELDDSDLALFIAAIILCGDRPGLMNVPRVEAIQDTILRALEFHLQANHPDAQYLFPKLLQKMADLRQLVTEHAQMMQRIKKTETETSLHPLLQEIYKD
Description: (§1) 293T (ATCC® CRL-3216™) cells were cultured in Dulbecco’s Modified Eagle’s Medium (DMEM, Gibco®) supplemented with 10% (v/v) fetal bovine serum, 50 U/mL penicillin, and […] streptomycin, at 37°C, and humidified atmosphere of 5% CO2. For transactivation assays, cells were seeded in 24-well plates (density of 2.0 × 10^5 cells/well), and transiently transfected with Lipofectamine® 2000 (Invitrogen) and 0.5 μg of the following plasmids: pRL-TK, a transfection control, which express Renilla reniformis luciferase constitutively; pGRE-LUC, which contains responsive element for GAL4 protein followed by reporter gene of firefly luciferase; pBIND-PPARγ, a chimeric protein composed by GAL4-DBD and PPARγ-LBD, under control of the cytomegalovirus promoter (CMV), in a proportion of 1.5 μg DNA:2 μL of Lipofectamine. As negative control, empty BlueScript plasmid was used instead of pBIND-PPARγ. […]
(§2) Four hours after transfection, the culture medium was exchanged to DMEM plus 10% FBS Charcoal stripped broth and 1 μM of each tested compound, Rosi or 1% DMSO was added to each well. […] After 24 h of treatment, reporter gene expression was measured with Dual-Luciferase® Reporter (DLR™) Assay System (Promega), according to manufacturer’s instructions in a GloMax-Multi + Detection System (Promega). […]

[1] = test system: PPARγ target genes in 3T3-L1 cells; assay: Gene expression analysis (RT-qPCR) in differentiated 3T3-L1 cells; type: cell-based; details: 1 μM ligand, vs DMSO
Description: Total RNA from differentiated 3T3-L1 cells was extracted by RNeasy kit (Qiagen) and cDNAs were synthesized with High-Capacity cDNA Reverse Transcription Kit (ThermoFischer Scientific). Quantitative PCR reactions were performed with SYBR Real Time PCR master mixes (ThermoFischer Scientific) and 50 ng of cDNA, in a 7500 Real Time PCR system (Applied Biosystems). Relative mRNA expression was determined by the ΔΔ-Ct method normalized to GAPDH levels. The sequences of primers used in this study are presented in Table S2 in Supplementary Material.

PPARγ [2] = target: T2, PPARγ (Homo sapiens, UniProt P37231); assay: Cell transactivation assay, GAL4-PPARγ-LBD reporter gene; type: cell-based; details: 293T cells, up to 0.1 mM
T2 construct: a chimeric protein composed by GAL4-DBD and PPARγ-LBD; expressed in transfected cells; host or cells: 293T (ATCC CRL-3216)
T2 sequence (P37231 238-503 limits assumed): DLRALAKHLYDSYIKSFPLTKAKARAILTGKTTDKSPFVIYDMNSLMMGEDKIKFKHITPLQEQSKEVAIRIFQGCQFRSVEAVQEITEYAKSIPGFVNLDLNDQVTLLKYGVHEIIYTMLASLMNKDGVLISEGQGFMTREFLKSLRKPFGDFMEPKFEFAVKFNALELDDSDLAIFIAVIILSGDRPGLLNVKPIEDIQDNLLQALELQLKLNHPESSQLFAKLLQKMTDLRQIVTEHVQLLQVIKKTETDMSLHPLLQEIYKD
Description: For transactivation assays, cells were seeded in 24-well plates (density of 2.0 × 10^5 cells/well), and transiently transfected with Lipofectamine® 2000 (Invitrogen) and 0.5 μg of the following plasmids: pRL-TK, a transfection control, which express Renilla reniformis luciferase constitutively; pGRE-LUC, which contains responsive element for GAL4 protein followed by reporter gene of firefly luciferase; pBIND-PPARγ, a chimeric protein composed by GAL4-DBD and PPARγ-LBD, under control of the cytomegalovirus promoter (CMV), in a proportion of 1.5 μg DNA:2 μL of Lipofectamine. As negative control, empty BlueScript plasmid was used instead of pBIND-PPARγ. For isotype specificity transactivation assay, cells were seeded in 96-well plates (density of 4.0 × 10^4 cells/well) and transfected with pRL-TK; pGRE-LUC and pBIND-PPARα; and pBIND-PPARβ.
Four hours after transfection, the culture medium was exchanged to DMEM plus 10% FBS Charcoal stripped broth and 1 μM of each tested compound, Rosi or 1% DMSO was added to each well. In dose–response experiments, concentration of compounds was increased from 0.01 to 0.1 mM. After 24 h of treatment, reporter gene expression was measured with Dual-Luciferase® Reporter (DLR™) Assay System (Promega), according to manufacturer’s instructions in a GloMax-Multi + Detection System (Promega). […]

PPARγ [3] = target: T2, PPARγ; set-up: method as in PMID 24075729; details: cited from earlier work
PPARγ LBD [4] = target: T3, PPARγ LBD (Homo sapiens, UniProt P37231); assay: Thermal shift assay (TSA), SYPRO Orange; type: binding; details: PPARγ 4 μM, threefold ligand excess (12 μM)
T3 construct: construction (isoform PPARγ1), encoding AAs 207–477, inserted in pET 28a (+); made in house; host or cells: Escherichia coli BL21 (DE3)
T3 sequence (P37231 207-477 isoform P37231-2): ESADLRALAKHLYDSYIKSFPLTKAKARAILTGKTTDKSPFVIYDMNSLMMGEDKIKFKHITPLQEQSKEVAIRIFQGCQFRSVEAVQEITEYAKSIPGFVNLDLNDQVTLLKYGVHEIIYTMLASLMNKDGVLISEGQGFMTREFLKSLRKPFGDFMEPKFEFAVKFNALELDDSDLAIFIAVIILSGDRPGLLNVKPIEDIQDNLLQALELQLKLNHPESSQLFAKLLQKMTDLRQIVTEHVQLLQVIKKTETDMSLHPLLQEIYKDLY
Description: Protein thermal unfolding was monitored by measuring the SYPRO® Orange probe (Life technologies) fluorescence. […] Rosi was used as a PPARγ full agonist control and, dimethyl sulfoxide (DMSO), as apo-PPARγ control. TSA was performed in triplicates, in 96-well PCR microplates (Applied Biosystems—Life Technologies), through an RT-PCR device (7500 Real Time PCR System). Samples were heated at 1°C per min, from 10 to 90°C. Fluorescence intensities were plotted as a function of temperature and, the melting temperature (Tm) of the protein unfolding transition was obtained through a Boltzmann model in Origin Pro 8.1 and using an Excel based worksheet (DSF Analysis v3.0.2, ftp://ftp.sgc.ox.ac.uk/pub/biophysics).

3T3-L1 cells = assay: Adipocyte differentiation assay, Oil Red O; type: cell-based; details: 1 μM ligand; for Adipocyte differentiation / adipogenesis (in words): Oil Red O staining
Description: 3T3-L1 (ATCC® CRL-3242™) cells were cultured in DMEM (Gibco®) supplemented with 10% (v/v) fetal bovine serum, 50 U/mL penicillin, and […] streptomycin, at 37°C, and humidified atmosphere of 5% CO2. After achieved 70% confluency, cells were trypsinized and seeded in 6-well plates (Corning) at a density of 2.8 × 10^5 cells/well. After 2 days, cells were treated with dexamethasone ([…]) to induce preadipocytes differentiation, and 1 μM of Rosi, 1 μM of AM-879, or 1% DMSO. After treatment, the culture medium was exchanged every 48 h, supplemented with 1 μM of each ligand, for 6 days. In order to measure adipocyte differentiation, fully differentiated 3T3-L1 cells were washed with phosphate-buffered saline (PBS), fixed with 10% formalin (v/v) for 1 h, and then, stained with oil red solution (Oil Red O) (0.3% in isopropanol 60%) for 20 min. After staining, cells were washed with PBS and photographed in Nikon MTS microscope (Nikon). Lipid accumulation was also quantified by Oil Red O absorbance measurement at 520 nm. For this measurement, cells lysis was performed in 200 μL of isopropanol and 4% Igepal solution, and the absorbance of the samples was recorded in a 10-mm cuvette in a spectrophotometer (V-530, Jasco). Data were compared using unpaired t-test.

PPARγ LBD [5] = target: T3, PPARγ LBD; assay: ANS fluorescence quenching ligand-binding assay; details: PPARγ 1 μM, ANS 10 μM, ligand 0.1-60 μM, Hill model, 25°C; read-out: Kd (dissociation constant) from ANS displacement
Description: 8-Anilino-1-naphthalenesulfonic acid fluorescence quenching assay was performed incubating 1 μM of PPARγ with 10 μM of the fluorescent probe ANS for 30 min. Following this, increasing concentrations (0.1–60 μM) of the pre-selected 20 compounds were titrated in protein-ANS solution. […] Fluorescence data were fitted to binding curves using Hill model for dissociation constant (Kd) calculation. All experiments were performed in triplicates and data were processed using the software Origin Pro 8.1.

PPARγ LBD [6] = target: T3, PPARγ LBD; assay: NanoDSF, intrinsic tryptophan and tyrosine fluorescence; type: binding; details: PPARγ 25 μM, ligand 75 μM (3 M excess)
Description: Intrinsic tryptophan and tyrosine fluorescence were measured using NT48 device (NanoTemper), as a more sensitive technology to check protein stability in comparison to TSA. […] The initial fluorescence scan of loaded capillaries was performed at 20°C, monitoring emission wavelength at 330 and 350 nm in order to find the optimal signal range. After this step, samples were subjected to a temperature ramp of 1°C/min from 20 to 90°C and fluorescence was constantly monitored. Data were analyzed and Tm was determined using PR. ThermControl software (NanoTemper).

PPARα = target: T4, PPARα (Homo sapiens, UniProt Q07869); assay: Isotype specificity transactivation assay, GAL4-PPARα-LBD reporter gene; type: cell-based; details: 293T cells, ligands 1 μM, compared with full agonist
T4 construct: using a GAL4-PPARα-LBD (A) or GAL4-PPARβ-LBD (B) reporter gene; expressed in transfected cells; host or cells: HEK 293T
T4 sequence (Q07869 239-466 limits assumed): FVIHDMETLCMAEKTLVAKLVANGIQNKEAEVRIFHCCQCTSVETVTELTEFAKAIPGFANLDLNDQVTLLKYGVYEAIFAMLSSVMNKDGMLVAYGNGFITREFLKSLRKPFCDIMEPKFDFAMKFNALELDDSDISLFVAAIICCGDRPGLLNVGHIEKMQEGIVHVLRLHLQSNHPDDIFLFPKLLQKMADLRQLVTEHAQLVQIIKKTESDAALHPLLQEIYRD
Description: as §1, §2

[7] = target: T5, CDK5-mediated phosphorylation of PPARγ at serine 273 (Homo sapiens, UniProt P37231); assay: In vitro phosphorylation assay (ADP-Glo); type: biochemical; details: PPARγ LBD 1.2 μM, 5 M excess of ligand, 50 ng CDK5/p35, ATP 10 μM, 1 h
T5 construct: construction (isoform PPARγ1), encoding AAs 207–477, inserted in pET 28a (+); host or cells: Escherichia coli BL21 (DE3) for PPARγ LBD
T5 sequence (P37231 207-477 isoform P37231-2): T3 sequence (P37231 207-477 isoform P37231-2)
Description: Then, protein and ligands were incubated with 50 ng CDK5/p35 (Sigma), for 1 h, at room temperature, in the CDK5/p35 reaction buffer (composition recommended by manufacturer) and in the presence of ATP 10 μM. After reaction, ADP detection was performed by using ADP-Glo™ kinase assay (Promega) following manufacturer’s instructions. Luminesce signal was recorded using GloMax-Multi + Detection System (Promega) microplate luminometer.

| Structure (SMILES) | PPARβ activation (PPARβ) | Adipoq (Adiponectin) relative expression [1] | Cd36 relative expression [1] | Cebpa relative expression [1] | Cfd (Adipsin) relative expression [1] | Lep (Leptin) relative expression [1] | Lpl relative expression [1] | Pparg relative expression [1] | PPARγ activation (dose-response, in words) (PPARγ [2]) | Effect on PPARγ activation (earlier description as possible antagonist) (PPARγ [3]) | Tm from TSA (PPARγ LBD [4]) [°C] | Lipid accumulation (Oil Red O absorbance at 520 nm) in comparison with DMSO (3T3-L1 cells; 6 days) [fold] | Adipocyte differentiation / adipogenesis (in words) (3T3-L1 cells) | Kd (PPARγ LBD [5]) [µM] | Tm from nanoDSF (PPARγ LBD [6]) [°C] | PPARα activation (PPARα) | Decrease of CDK5-mediated phosphorylation of PPARγ (Ser 273) [7] [%] |
| --- | --- | --- | --- | --- | --- | --- | --- | --- | --- | --- | --- | --- | --- | --- | --- | --- | --- |
| O=C(O)c1ccc(COc2ccccc2C=C2C(=O)c3ccccc3C2=O)cc1 [AM-879, 4-({2-[(1,3-dioxo-1,3-dihydro-2H-inden-2-ylidene)methyl]phenoxy}methyl) benzoic acid] | none of them activated | slightly reduced levels | slightly reduced levels | did not alter | slightly reduced levels | did not alter | did not alter | did not alter | did not activate PPARγ even at the highest concentration; also recorded: did not present any significant change in PPARγ activation | reduced the activation of the receptor | 49.83 ± 0.01 | 1.12 ± 0.13 | did not induce a significant increase in adipocyte differentiation | 4.5 ± 0.6 | 48.8 ± 0.114 | none of them activated | 28 |
| O=C(O)c1ccc(/C=C/C(=O)c2ccc3ccccc3c2)cc1 [P11] | none of them activated |  |  |  |  |  |  |  | did not activate PPARγ even at the highest concentration; also recorded: did not present any significant change in PPARγ activation |  | 49.4 ± 0.1 |  |  | 3.3 ± 0.7 | 48.0 ± 0.172 | none of them activated |  |
| CN(CCOc1ccc(CC2SC(=O)NC2=O)cc1)c1ccccn1 (stereo not drawn) [Rosiglitazone, rosiglitazone, reference compound] |  |  |  |  |  |  |  |  |  |  |  |  | strongly induced adipogenesis |  |  |  |  |
